# Laboratory results as given in patent publication US8993595B2, “Macrocyclic serine protease inhibitors” (priority 2009, dated 2015).
# Read-outs that look alike come from different tables or passages of the source.
# Experiments:
# human CYP450 3A4 = target: T1, human CYP450 3A4 (Homo sapiens, UniProt P08684); test: CYP450 inhibition assay, 3A4; type: in vitro ADME
# T1 construct: purchased BD Bioscience
# Description: (§1) Compound 52 was incubated with human CYP450 cDNA-expressed isoenzymes according to the protocol (BD Bioscience). For CYP2C9, a luminogenic substrate was used with the P450-Glo™ kit. In addition, the effect of the compound on CYP2C9-mediated diclofenac metabolism was measured by LC-UV. The potential inhibitory effect of the compound on human UGT1A1 was examined using human liver microsomes and bilirubin as substrate. The metabolites (mono- and di-glucuronidated bilirubin) were measured by LC-UV.
# [1] = MTS Cytotoxicity Assay in HPC cells; type: cell-based; conditions: human; HPC cells (2a virus line)
# Description: HPC cells were infected with JFH-1 (genotype 2a) and treated with the compound for 4 days (virus inoculum was removed after 16 hrs). Remaining virus was measured by an anti-HCV core ELISA. Compound cytotoxicity was also measured in parallel using a colorimetric proliferation assay as described in Example 5.
# The cytotoxicity assay measures the viability of cells after treatment with a test compound for 5 days. The assay readout is the bioreduction of the yellow MTS tetrazolium compound to a purple formazan product. This conversion is mediated by NADPH or NADH and is directly proportional to the number of live cells in a culture.
# Ninety-six-well Corning Costar plates were seeded with HPC cells at a density of 3.0×10^3 cells per well in 50 μL of Huh-7 media. Compound stock solutions were made up freshly in Huh-7 media as 2× stocks. Seven additional 3-fold drug dilutions were prepared from the 2× stocks in Huh-7 media for a total of 8 dilutions.
# At least 4 hours after HPC cells were seeded, 50 μL of each drug dilution was added to the cultures. […]
# After 5 days of treatment, the CellTiter 96® Aqueous One Solution cell proliferation assay was performed by adding 20 μL of MTS solution to each well. […] Plates were read at A490 nm in a Victor^3 V 1420 multilabel counter (Perkin Elmer) and CC50 concentrations were determined using Microsoft Excel and XLfit 4.1 software. […]
# [2] = tested on: HCV Con1 subgenomic replicon in Huh-7 cells (GS4.1 cells); test: HCV Replicon Assay (NS4A ELISA); type: cell-based; conditions: Hepatitis C virus, 72 hr
# Description: Huh-7 cells containing HCV Con1 subgenomic replicon (GS4.1 cells) were grown in Dulbecco's Modified Eagle Medium (DMEM) supplemented with 10% fetal bovine serum (FBS), 2 mM L-glutamine, 110 mg/L sodium pyruvate, 1× non-essential amino acids, 100 U/mL penicillin-streptomycin, and 0.5 mg/mL G418 (Invitrogen). For dose-response testing, the cells were seeded in 96-well plates at 7.5×10^3 cells/well in a volume of 50 μL, and incubated at 37° C./5% CO2. Three hours after plating, 50 μL of ten 2-fold serial dilutions of compounds (highest concentration, 75 μM) were added, and cell cultures were incubated at 37° C./5% CO2 in the presence of 0.5% DMSO. Alternatively, compounds were tested at a single concentration of 15 μM. In all cases, Huh-7 cells lacking the HCV replicon served as negative control. The cells were incubated in the presence of compounds for 72 hr after which they were monitored for expression of the NS4A protein by enzyme-linked immunosorbent assay (ELISA). For this, the plates were then fixed for 1 min with acetone/methanol (1:1, v/v), washed twice with phosphate-buffered saline (PBS), 0.1% Tween 20, blocked for 1 hr at room temperature with TNE buffer containing 10% FBS and then incubated for 2 hr at 37° C. with the anti-NS4A mouse monoclonal antibody A-236 (ViroGen) diluted in the same buffer. After washing three times with PBS, 0.1% Tween 20, the cells were incubated 1 hr at 37° C. with anti-mouse immunoglobulin G-peroxidase conjugate in TNE, 10% FBS. After washing as described above, the reaction was developed with O-phenylenediamine (Zymed). The reaction was stopped after 30 min with 2 N H2SO4, and absorbance was read at 492 nm using Sunrise Tecan spectrophotometer. EC50 values were determined from the % inhibition versus concentration data using a sigmoidal non-linear regression analysis based on four parameters with Tecan Magellan software.
# [3] = 400 mg per day
# human UGT1A1 = target: T2, human UGT1A1 (Homo sapiens, UniProt P22309); test: UGT1A1 inhibition assay; type: in vitro ADME; conditions: human liver microsomes, bilirubin as substrate
# T2 construct: examined using human liver microsomes and bilirubin as substrate; from tissue; host or cells: human liver microsomes
# Description: as §1
# CD-1 mice = type: in vivo; conditions: oral doses up to 2,000 mg/kg
# Description: (§2) The potential for compound 52 to induce mutations in a bacterial system (S. typhimurium and E. coli—at concentrations up to 5,000 μg/plate), to induce chromosomal aberrations in cultures of human peripheral blood lymphocytes (at concentrations up to 84 μg/mL), and to induce clastogenic and/or aneugenic activity in CD-1 mice (at oral doses up to 2,000 mg/kg) was evaluated. The two in vitro studies were performed with and without the addition of a mammalian metabolic activation system (rat liver S9 subcellular fraction).
# NS3-4A (Con1) = NS3-4A (Con1) (Hepatitis C virus genotype 1b, UniProt Q9WMX2); test: Binding kinetics by surface plasmon resonance; parameters: species or system HCV
# Description: The binding kinetics of compound 52 to NS3-4A (Con1) was also determined using surface plasmon resonance.
# [4] = tested on: S. typhimurium and E. coli; test: Bacterial mutation test; type: cell-based; conditions: up to 5,000 μg/plate, with and without S9
# Description: as §2
# [5] = tested on: B-1a cell line (genotype 1a replicon selected with 10 nM, D168A); test: Extent of resistance after selection, B-1a; type: cell-based, HCV; conditions: selecting conc. 10 nM
# Description: Replicon cells (genotype 1a or 1b) were treated with various concentrations of compound 52 in the presence of G418. Treatment-emergent genotypic changes were identified by population sequencing of NS3 (both protease and helicase regions). The activity of compound 52 and other compounds was evaluated by NS5A western blot after selection or luciferase assay during and after selection.
# human CYP450 2C9 = target: T3, human CYP450 2C9 (Homo sapiens, UniProt P11712); test: CYP450 inhibition assay, 2C9; type: in vitro ADME
# T3 construct: purchased BD Bioscience
# Description: as §1
# Sequence of NS3-4A (Con1) (Q9WMX2 1027-1657): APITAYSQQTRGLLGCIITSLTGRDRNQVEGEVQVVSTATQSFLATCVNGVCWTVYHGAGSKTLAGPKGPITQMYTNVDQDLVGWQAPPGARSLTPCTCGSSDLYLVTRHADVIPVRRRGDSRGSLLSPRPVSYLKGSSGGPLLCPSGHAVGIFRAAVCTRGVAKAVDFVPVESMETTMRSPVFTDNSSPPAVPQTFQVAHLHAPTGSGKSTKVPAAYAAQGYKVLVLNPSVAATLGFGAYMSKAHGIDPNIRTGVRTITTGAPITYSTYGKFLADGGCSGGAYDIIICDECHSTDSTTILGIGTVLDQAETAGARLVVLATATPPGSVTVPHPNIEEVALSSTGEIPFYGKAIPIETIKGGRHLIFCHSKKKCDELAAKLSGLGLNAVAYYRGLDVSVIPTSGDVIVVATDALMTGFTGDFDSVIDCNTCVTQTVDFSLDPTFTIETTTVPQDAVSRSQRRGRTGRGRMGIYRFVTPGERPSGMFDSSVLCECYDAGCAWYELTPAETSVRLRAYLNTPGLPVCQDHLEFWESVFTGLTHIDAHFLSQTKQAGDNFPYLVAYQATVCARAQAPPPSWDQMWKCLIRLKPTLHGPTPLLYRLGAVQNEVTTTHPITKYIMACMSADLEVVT
# Sequence of NS3-4A (Con1) (Q9WMX2 1658-1711): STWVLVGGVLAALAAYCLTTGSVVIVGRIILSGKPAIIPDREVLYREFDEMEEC
# T1 sequence (P08684 whole entry): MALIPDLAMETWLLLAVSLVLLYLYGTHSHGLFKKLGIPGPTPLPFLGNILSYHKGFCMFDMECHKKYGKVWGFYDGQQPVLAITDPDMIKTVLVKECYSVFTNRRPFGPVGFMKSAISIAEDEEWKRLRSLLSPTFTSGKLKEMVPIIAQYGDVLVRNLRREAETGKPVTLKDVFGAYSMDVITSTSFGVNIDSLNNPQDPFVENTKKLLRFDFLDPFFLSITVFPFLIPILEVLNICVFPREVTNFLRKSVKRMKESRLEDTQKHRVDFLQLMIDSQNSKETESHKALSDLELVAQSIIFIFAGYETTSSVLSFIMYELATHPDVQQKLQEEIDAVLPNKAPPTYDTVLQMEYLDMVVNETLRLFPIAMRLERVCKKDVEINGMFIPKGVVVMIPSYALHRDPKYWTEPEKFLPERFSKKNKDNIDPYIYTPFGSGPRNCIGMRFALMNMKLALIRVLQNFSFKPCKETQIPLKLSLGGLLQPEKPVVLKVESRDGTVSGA
# T2 sequence (P22309 26-533): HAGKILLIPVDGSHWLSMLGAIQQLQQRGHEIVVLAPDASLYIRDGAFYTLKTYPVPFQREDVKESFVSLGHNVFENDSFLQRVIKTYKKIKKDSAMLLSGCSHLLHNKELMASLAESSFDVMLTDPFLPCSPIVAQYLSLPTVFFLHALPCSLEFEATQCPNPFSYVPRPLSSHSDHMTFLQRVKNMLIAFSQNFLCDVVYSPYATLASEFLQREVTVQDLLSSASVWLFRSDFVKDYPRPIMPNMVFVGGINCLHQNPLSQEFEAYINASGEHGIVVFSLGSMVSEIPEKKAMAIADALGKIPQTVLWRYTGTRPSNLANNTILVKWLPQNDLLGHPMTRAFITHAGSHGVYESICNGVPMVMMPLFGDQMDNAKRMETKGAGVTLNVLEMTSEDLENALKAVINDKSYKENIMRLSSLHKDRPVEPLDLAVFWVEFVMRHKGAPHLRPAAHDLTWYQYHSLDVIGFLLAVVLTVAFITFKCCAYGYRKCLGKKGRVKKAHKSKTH
# T3 sequence (P11712 whole entry): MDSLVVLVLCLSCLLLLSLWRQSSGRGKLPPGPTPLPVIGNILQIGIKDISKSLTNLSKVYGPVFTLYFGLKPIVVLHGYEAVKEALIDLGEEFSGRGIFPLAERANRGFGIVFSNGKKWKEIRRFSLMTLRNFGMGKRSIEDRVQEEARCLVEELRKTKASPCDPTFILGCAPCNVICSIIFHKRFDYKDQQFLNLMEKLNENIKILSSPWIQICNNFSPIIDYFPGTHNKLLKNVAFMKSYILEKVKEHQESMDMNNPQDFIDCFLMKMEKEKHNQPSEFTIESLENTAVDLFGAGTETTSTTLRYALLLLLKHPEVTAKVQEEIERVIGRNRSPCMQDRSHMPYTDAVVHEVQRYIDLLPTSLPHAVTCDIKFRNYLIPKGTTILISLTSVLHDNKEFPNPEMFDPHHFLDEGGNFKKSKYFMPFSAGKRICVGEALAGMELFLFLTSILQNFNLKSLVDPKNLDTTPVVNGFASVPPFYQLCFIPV
smiles,measurement,setting,value
"COc1ccc2c(O[C@H]3CCN4C(=O)N(C)CCCC/C=C\[C@@H]5C[C@@]5(C(=O)NS(=O)(=O)C5(C)CC5)NC(=O)[C@@H]4C3)cc(-c3nc(C(F)(F)F)cs3)nc2c1C [Compound 52, 1-methyl-cyclopropanesulfonic acid{(Z)-(1S,4R,6S,18S)-18-[7-methoxy-8-methyl-2-(4-trifluoromethyl-thiazol-2-yl)-quinolin-4-yloxy]-13-methyl-2,14-dioxo-3,13,15-triaza-tricyclo[13.4.0.0*4,6*]nonadec-7-ene-4-carbonyl}amide]",IC50,human CYP450 3A4,≥ 10 µM
same,CC50 at 5 days,[1],11.3 ± 0.1 µM
same,EC50,[2],< 1 µM
same,C24 hr,[3]; PK Day 1,117 ± 53 ng/mL
same,C24 hr,[3]; PK Day 2,165 ± 87 ng/mL
same,C24 hr,[3]; PK Day 3,197 ± 112 ng/mL
same,IC50,human UGT1A1,≥ 10 µM
same,"genotoxicity, mouse micronucleus test",CD-1 mice,no genotoxicity
same,kon,NS3-4A (Con1); read-out: association rate,27000 M⁻¹ s⁻¹
same,koff,NS3-4A (Con1); read-out: dissociation rate,2.1e-05 s⁻¹
same,Kd,NS3-4A (Con1); read-out: equilibrium constant,0.0008 µM
same,"genotoxicity, bacterial mutation test",[4],no genotoxicity
same,Fold-Change,[5],>3690
same,IC50,human CYP450 2C9,≥ 10 µM
